Calls of active or inactive are those of the source. The rule behind the calls is not given here. Positions of bridges follow the written chain, without caps; N, C: chain ends. Non-standard residues stand in square brackets, D forms with d. Residues, ends and D or L forms follow the SMILES beside them. Dip = N[C@H](C(=O)O)C(c1ccccc1)c1ccccc1; Chg = N[C@H](C(=O)O)C1CCCCC1; S5 = C=CCCC[C@](C)(N)C(=O)O; NMeA = CN[C@@H](C)C(=O)O; AEEA = NCCOCCOCC(=O)O; βAla = NCCC(=O)O
Key:
Homo sapiens [1] = species on record: Homo sapiens; assay: Induction of IAP-mediated NOTCH1 protein degradation in human MOLT4 cells assessed as reduction in c-Myc level by measuring ratio of c-Myc to beta-actin protein level at 80 uM after 4 hrs by Western blot analysis (reference value: 100%); format: cell-based
Homo sapiens [2] = species on record: Homo sapiens; assay: Induction of IAP-mediated NOTCH1 protein degradation in human MOLT4 cells assessed as ratio of NOTCH1 to beta-actin protein level at 80 uM after 4 hrs by Western blot analysis (reference value: 100%); format: cell-based
Homo sapiens [3] = species on record: Homo sapiens; assay: Induction of IAP-mediated NOTCH1 protein degradation in human MOLT4 cells assessed as reduction in c-Myc level by measuring ratio of c-Myc to beta-actin protein level at 80 uM after 10 hrs by Western blot analysis (reference value: 100%); format: cell-based
Homo sapiens [4] = species on record: Homo sapiens; assay: Antagonist activity IAP in human MOLT4 cells assessed as reduction in cIAP1 protein level at 50 to 80 uM after 6 hrs by Western blot analysis; format: cell-based
MOLT-4 [5] = assay: Induction of CSL protein degradation in human MOLT4 cells assessed as ratio of CSL to lamin protein level at 70 uM after 6 hrs by Western blot analysis (reference value: 100%); format: functional
Homo sapiens [6] = species on record: Homo sapiens; assay: Induction of IAP-mediated NOTCH1 protein degradation in human MOLT4 cells assessed as ratio of NOTCH1 to lamin protein level at 70 uM after 6 hrs by Western blot analysis (reference value: 100%); format: cell-based
Homo sapiens [7] = species on record: Homo sapiens; assay: Induction of IAP-mediated NOTCH1 protein degradation in human MOLT4 cells assessed as ratio of NOTCH1 to lamin protein level at 80 uM after 6 hrs in presence of proteasome inhibitor MG132 by Western blot analysis (reference value: 100%); format: cell-based
Homo sapiens [8] = species on record: Homo sapiens; assay: Induction of IAP-mediated NOTCH1 protein degradation in human MOLT4 cells assessed as reduction in c-Myc level by measuring ratio of c-Myc to beta-actin protein level at 80 uM after 2 hrs by Western blot analysis (reference value: 100%); format: cell-based
Homo sapiens [9] = species on record: Homo sapiens; assay: Induction of IAP-mediated NOTCH1 protein degradation in human MOLT4 cells assessed as ratio of NOTCH1 to beta-actin protein level at 80 uM after 8 hrs by Western blot analysis (reference value: 100%); format: cell-based
MOLT-4 [10] = assay: Cytotoxicity against human MOLT4 cells at >100 uM; format: cell-based
MOLT-4 [11] = assay: Induction of CSL protein degradation in human MOLT4 cells assessed as ratio of CSL to lamin protein level at 100 uM after 6 hrs by Western blot analysis (reference value: 111%); format: functional
Homo sapiens [12] = species on record: Homo sapiens; assay: Induction of IAP-mediated NOTCH1 protein degradation in human MOLT4 cells assessed as ratio of NOTCH1 to lamin protein level at 70 uM after 6 hrs in presence of proteasome inhibitor MG132 by Western blot analysis (reference value: 100%); format: cell-based
Homo sapiens [13] = species on record: Homo sapiens; assay: Induction of IAP-mediated NOTCH1 protein degradation in human MOLT4 cells assessed as ratio of NOTCH1 to lamin protein level at 80 uM after 6 hrs by Western blot analysis (reference value: 100%); format: cell-based
Homo sapiens [14] = species on record: Homo sapiens; assay: Induction of IAP-mediated NOTCH1 protein degradation in human MOLT4 cells assessed as ratio of NOTCH1 to beta-actin protein level at 80 uM after 10 hrs by Western blot analysis (reference value: 100%); format: cell-based
Homo sapiens [15] = species on record: Homo sapiens; assay: Induction of IAP-mediated NOTCH1 protein degradation in human MOLT4 cells assessed as ratio of NOTCH1 to lamin protein level at 50 uM after 6 hrs by Western blot analysis (reference value: 100%); format: cell-based
MOLT-4 [16] = assay: Induction of CSL protein degradation in human MOLT4 cells assessed as ratio of CSL to lamin protein level at 50 uM after 6 hrs by Western blot analysis (reference value: 100%); format: functional
MOLT-4 [17] = assay: Induction of CSL protein degradation in human MOLT4 cells assessed as ratio of CSL to lamin protein level at 50 uM after 6 hrs by Western blot analysis (reference value: 111%); format: functional
MOLT-4 [18] = assay: Induction of CSL protein degradation in human MOLT4 cells assessed as ratio of CSL to lamin protein level at 80 uM after 6 hrs by Western blot analysis (reference value: 100%); format: functional
Homo sapiens [19] = species on record: Homo sapiens; assay: Induction of IAP-mediated NOTCH1 protein degradation in human MOLT4 cells assessed as ratio of NOTCH1 to lamin protein level at 60 uM after 6 hrs by Western blot analysis (reference value: 100%); format: cell-based
Homo sapiens [20] = species on record: Homo sapiens; assay: Induction of IAP-mediated NOTCH1 protein degradation in human MOLT4 cells assessed as ratio of NOTCH1 to lamin protein level at 60 uM after 6 hrs in presence of proteasome inhibitor MG132 by Western blot analysis (reference value: 100%); format: cell-based
Homo sapiens [21] = species on record: Homo sapiens; assay: Induction of IAP-mediated NOTCH1 protein degradation in human MOLT4 cells assessed as ratio of NOTCH1 to lamin protein level at 50 uM after 6 hrs by Western blot analysis (reference value: 91%); format: cell-based
Homo sapiens [22] = species on record: Homo sapiens; assay: Induction of IAP-mediated NOTCH1 protein degradation in human MOLT4 cells assessed as reduction in c-Myc level by measuring ratio of c-Myc to beta-actin protein level at 80 uM after 6 hrs by Western blot analysis (reference value: 100%); format: cell-based
Homo sapiens [23] = species on record: Homo sapiens; assay: Induction of IAP-mediated NOTCH1 protein degradation in human MOLT4 cells assessed as ratio of NOTCH1 to lamin protein level at 100 uM after 6 hrs by Western blot analysis (reference value: 91%); format: cell-based
Homo sapiens [24] = species on record: Homo sapiens; assay: Induction of IAP-mediated NOTCH1 protein degradation in human MOLT4 cells assessed as ratio of NOTCH1 to beta-actin protein level at 80 uM after 6 hrs by Western blot analysis (reference value: 100%); format: cell-based
Homo sapiens [25] = species on record: Homo sapiens; assay: Induction of IAP-mediated NOTCH1 protein degradation in human MOLT4 cells assessed as ratio of NOTCH1 to lamin protein level at 20 uM after 6 hrs by Western blot analysis (reference value: 91%); format: cell-based
Homo sapiens [26] = species on record: Homo sapiens; assay: Induction of IAP-mediated NOTCH1 protein degradation in human MOLT4 cells assessed as ratio of NOTCH1 to beta-actin protein level at 80 uM after 2 hrs by Western blot analysis (reference value: 100%); format: cell-based
Homo sapiens [27] = species on record: Homo sapiens; assay: Induction of IAP-mediated NOTCH1 protein degradation in human MOLT4 cells assessed as reduction in c-Myc level by measuring ratio of c-Myc to beta-actin protein level at 80 uM after 8 hrs by Western blot analysis (reference value: 100%); format: cell-based
Homo sapiens [28] = species on record: Homo sapiens; assay: Induction of IAP-mediated NOTCH1 protein degradation in human MOLT4 cells assessed as reduction in c-Myc level at 80 uM by Western blot analysis; format: cell-based; conditions: TDE = time-dependent effect
MOLT-4 [29] = assay: Induction of CSL protein degradation in human MOLT4 cells assessed as ratio of CSL to lamin protein level at 20 uM after 6 hrs by Western blot analysis (reference value: 111%); format: functional
MOLT-4 [30] = assay: Induction of CSL protein degradation in human MOLT4 cells assessed as ratio of CSL to lamin protein level at 60 uM after 6 hrs by Western blot analysis (reference value: 100%); format: functional
MOLT-4 [31] = assay: Induction of CSL protein degradation in human MOLT4 cells assessed as ratio of CSL to lamin protein level at 100 uM after 6 hrs by Western blot analysis (reference value: 100%); format: functional
Homo sapiens [32] = species on record: Homo sapiens; assay: Induction of IAP-mediated NOTCH1 protein degradation in human MOLT4 cells assessed as ratio of NOTCH1 to lamin protein level at 100 uM after 6 hrs by Western blot analysis (reference value: 100%); format: cell-based
MOLT-4 [33] = assay: Induction of CSL protein degradation in human MOLT4 cells assessed as ratio of CSL to lamin protein level at 20 uM after 6 hrs by Western blot analysis (reference value: 100%); format: functional
Homo sapiens [34] = species on record: Homo sapiens; assay: Induction of IAP-mediated NOTCH1 protein degradation in human MOLT4 cells assessed as ratio of NOTCH1 to lamin protein level at 20 uM after 6 hrs by Western blot analysis (reference value: 100%); format: cell-based

CC[C@H](C)[C@H](NC(=O)[C@H](CCCNC(=N)N)NC(=O)[C@H](CCCNC(=N)N)NC(=O)[C@H](CCCNC(=N)N)NC(=O)[C@H](CC(C)C)NC(=O)[C@H](CCCNC(=N)N)NC(=O)[C@H](CCC(=O)O)NC(=O)CCNC(=O)COCCOCCNC(=O)COCCOCCNC(=O)[C@@H](NC(=O)[C@@H]1CCCN1C(=O)[C@@H](NC(=O)[C@H](C)NC)C1CCCCC1)C(c1ccccc1)c1ccccc1)C(=O)N[C@@]1(C)CCC/C=C\CCC[C@@](C)(C(=O)N[C@@H](CCCNC(=N)N)C(=O)N[C@@H](Cc2cnc[nH]2)C(=O)N[C@@H](Cc2cnc[nH]2)C(=O)N[C@@H](CO)C(=O)N[C@H](C(=O)O)[C@@H](C)O)NC(=O)[C@H](CS)NC(=O)[C@H](CC(C)C)NC1=O (H-[NMeA][Chg]P[Dip][AEEA][AEEA][βAla]ERLRRRI[S5]LC[S5]RHHST-OH; staple (Z) 15-18)
Ratio (Homo sapiens [1]): 73% | Ratio (Homo sapiens [2]): 52% | Ratio (Homo sapiens [3]): 43% | inhibition (Homo sapiens [4]): Active | Ratio (MOLT-4 [5]): 112% | Ratio (Homo sapiens [6]): 63 to 70% | Ratio (Homo sapiens [7]): 110% | Ratio (Homo sapiens [8]): 62% | Ratio (Homo sapiens [9]): 56% | Activity (MOLT-4 [10]): Toxic | Ratio (MOLT-4 [11]): 83% | Ratio (Homo sapiens [12]): 108% | Ratio (Homo sapiens [13]): 48 to 67% | Ratio (Homo sapiens [14]): 43% | Ratio (Homo sapiens [15]): 88% | Ratio (MOLT-4 [16]): 110% | Ratio (MOLT-4 [17]): 99% | Ratio (MOLT-4 [18]): 118% | Ratio (Homo sapiens [19]): 72 to 75% | Ratio (Homo sapiens [20]): 92% | Ratio (Homo sapiens [21]): 76% | Ratio (Homo sapiens [22]): 63% | Ratio (Homo sapiens [23]): 30% | Ratio (Homo sapiens [24]): 54% | Ratio (Homo sapiens [25]): 99% | Ratio (Homo sapiens [26]): 67% | Ratio (Homo sapiens [27]): 56% | Activity (Homo sapiens [28]): Tde | Ratio (MOLT-4 [29]): 114% | Ratio (MOLT-4 [30]): 108%

CC[C@H](C)[C@H](NC(=O)[C@H](CCCNC(=N)N)NC(=O)[C@H](CCCNC(=N)N)NC(=O)[C@H](CCCNC(=N)N)NC(=O)[C@H](CC(C)C)NC(=O)[C@H](CCCNC(=N)N)NC(=O)[C@H](CCC(=O)O)NC(=O)CCNC(=O)COCCOCCNC(=O)[C@@H](NC(=O)[C@@H]1CCCN1C(=O)[C@@H](NC(=O)[C@H](C)NC)C1CCCCC1)C(c1ccccc1)c1ccccc1)C(=O)N[C@@H](CCC(=O)O)C(=O)N[C@@H](CC(C)C)C(=O)N[C@@H](CS)C(=O)N[C@@H](CCCNC(=N)N)C(=O)N[C@@H](CCCNC(=N)N)C(=O)N[C@@H](Cc1cnc[nH]1)C(=O)N[C@@H](Cc1cnc[nH]1)C(=O)N[C@@H](CO)C(=O)N[C@H](C(=O)O)[C@@H](C)O (H-[NMeA][Chg]P[Dip][AEEA][βAla]ERLRRRIELCRRHHST-OH)
Ratio (MOLT-4 [31]): 99% | Ratio (Homo sapiens [32]): 85% | Activity (MOLT-4 [10]): Toxic | Ratio (Homo sapiens [15]): 100% | Ratio (MOLT-4 [16]): 108% | Ratio (MOLT-4 [33]): 115% | Ratio (Homo sapiens [34]): 116%

— ChEMBL document CHEMBL4043281, “Development of a peptide-based inducer of protein degradation targeting NOTCH1” (Bioorg Med Chem Lett, 2017)
